Source: publication PMC10408569, “Recruitment of hexahydroquinoline as anticancer scaffold targeting inhibition of wild and mutants EGFR (EGFR^WT, EGFR^T790M, and EGFR^L858R)” (Journal of Enzyme Inhibition and Medicinal Chemistry, 2023)

Columns and labels:
[1] = tested on: HOP-92; experiment: NCI-60 anticancer screening (SRB); assay type: cell-based; conditions: Homo sapiens; HOP-92, NSC lung cancer; one dose 10 μM; read-out: Growth Inhibition Percentage (GI %)
[2] = tested on: SK-MEL-28; experiment: NCI-60 anticancer screening (SRB); assay type: cell-based; conditions: Homo sapiens; SK-MEL-28, melanoma; one dose 10 μM; read-out: Growth Inhibition Percentage (GI %)
[3] = tested on: SK-MEL-2; experiment: NCI-60 anticancer screening (SRB); assay type: cell-based; conditions: Homo sapiens; SK-MEL-2, melanoma; one dose 10 μM; read-out: Growth Inhibition Percentage (GI %)
[4] = tested on: TK-10; experiment: NCI-60 anticancer screening (SRB); assay type: cell-based; conditions: Homo sapiens; TK-10, renal cancer; one dose 10 μM; read-out: Growth Inhibition Percentage (GI %)
[5] = tested on: CAKI-1; experiment: NCI-60 anticancer screening (SRB); assay type: cell-based; conditions: Homo sapiens; CAKI-1, renal cancer; one dose 10 μM; read-out: Growth Inhibition Percentage (GI %)
[6] = tested on: MALME-3M; experiment: NCI-60 anticancer screening (SRB); assay type: cell-based; conditions: Homo sapiens, melanoma, one dose 10 μM, read-out: Growth Inhibition Percentage (GI %)
[7] = tested on: MCF7; experiment: NCI-60 anticancer screening (SRB); assay type: cell-based; conditions: Homo sapiens; MCF7, breast cancer; one dose 10 μM; read-out: Growth Inhibition Percentage (GI %)
[8] = tested on: SF-295; experiment: NCI-60 anticancer screening (SRB); assay type: cell-based; conditions: Homo sapiens; SF-295, CNS cancer; one dose 10 μM; read-out: Growth Inhibition Percentage (GI %)
[9] = tested on: NCI-H226; experiment: NCI-60 anticancer screening (SRB); assay type: cell-based; conditions: Homo sapiens; NCI-H226, NSC lung cancer; one dose 10 μM; read-out: Growth Inhibition Percentage (GI %)
[10] = tested on: NCI-H522; experiment: NCI-60 anticancer screening (SRB); assay type: cell-based; conditions: Homo sapiens; NCI-H522, NSC lung cancer; one dose 10 μM; read-out: Growth Inhibition Percentage (GI %)
[11] = tested on: UACC-62; experiment: NCI-60 anticancer screening (SRB); assay type: cell-based; conditions: Homo sapiens; UACC-62, melanoma; one dose 10 μM; read-out: Growth Inhibition Percentage (GI %)
[12] = tested on: K-562; experiment: NCI-60 anticancer screening (SRB); assay type: cell-based; conditions: Homo sapiens, K562; K-562, leukemia; one dose 10 μM; read-out: Growth Inhibition Percentage (GI %)
[13] = tested on: CCRF-CEM; experiment: NCI-60 anticancer screening (SRB); assay type: cell-based; conditions: Homo sapiens, leukemia, one dose 10 μM, read-out: Growth Inhibition Percentage (GI %)
[14] = tested on: LOX IMVI; experiment: NCI-60 anticancer screening (SRB); assay type: cell-based; conditions: Homo sapiens, melanoma, one dose 10 μM, read-out: Growth Inhibition Percentage (GI %)
[15] = tested on: DU-145; experiment: NCI-60 anticancer screening (SRB); assay type: cell-based; conditions: Homo sapiens; DU-145, prostate cancer; one dose 10 μM; read-out: Growth Inhibition Percentage (GI %)
[16] = tested on: OVCAR-3; experiment: NCI-60 anticancer screening (SRB); assay type: cell-based; conditions: Homo sapiens; OVCAR-3, ovarian cancer; one dose 10 μM; read-out: Growth Inhibition Percentage (GI %)
[17] = tested on: U251; experiment: NCI-60 anticancer screening (SRB); assay type: cell-based; conditions: Homo sapiens, U-251; U251, CNS cancer; one dose 10 μM; read-out: Growth Inhibition Percentage (GI %)
[18] = tested on: A498; experiment: NCI-60 anticancer screening (SRB); assay type: cell-based; conditions: Homo sapiens; A498, renal cancer; one dose 10 μM; read-out: Growth Inhibition Percentage (GI %)
[19] = tested on: SNB-75; experiment: NCI-60 anticancer screening (SRB); assay type: cell-based; conditions: Homo sapiens; SNB-75, CNS cancer; one dose 10 μM; read-out: Growth Inhibition Percentage (GI %)
[20] = tested on: HL-60(TB); experiment: NCI-60 anticancer screening (SRB); assay type: cell-based; conditions: Homo sapiens, leukemia, one dose 10 μM, read-out: Growth Inhibition Percentage (GI %)
[21] = tested on: OVCAR-8; experiment: NCI-60 anticancer screening (SRB); assay type: cell-based; conditions: Homo sapiens; OVCAR-8, ovarian cancer; one dose 10 μM; read-out: Growth Inhibition Percentage (GI %)
[22] = tested on: M14; experiment: NCI-60 anticancer screening (SRB); assay type: cell-based; conditions: Homo sapiens; M14, melanoma; one dose 10 μM; read-out: Growth Inhibition Percentage (GI %)
[23] = tested on: OVCAR-4; experiment: NCI-60 anticancer screening (SRB); assay type: cell-based; conditions: Homo sapiens; OVCAR-4, ovarian cancer; one dose 10 μM; read-out: Growth Inhibition Percentage (GI %)
[24] = tested on: MOLT-4; experiment: NCI-60 anticancer screening (SRB); assay type: cell-based; conditions: Homo sapiens; MOLT-4, leukemia; one dose 10 μM; read-out: Growth Inhibition Percentage (GI %)
[25] = tested on: COLO 205; experiment: NCI-60 anticancer screening (SRB); assay type: cell-based; conditions: Homo sapiens; COLO 205, colon cancer; one dose 10 μM; read-out: Growth Inhibition Percentage (GI %)
[26] = tested on: BT-549; experiment: NCI-60 anticancer screening (SRB); assay type: cell-based; conditions: Homo sapiens; BT-549, breast cancer; one dose 10 μM; read-out: Growth Inhibition Percentage (GI %)
[27] = tested on: HS 578T; experiment: NCI-60 anticancer screening (SRB); assay type: cell-based; conditions: Homo sapiens; HS 578T, breast cancer; one dose 10 μM; read-out: Growth Inhibition Percentage (GI %)
[28] = tested on: SF-268; experiment: NCI-60 anticancer screening (SRB); assay type: cell-based; conditions: Homo sapiens; SF-268, CNS cancer; one dose 10 μM; read-out: Growth Inhibition Percentage (GI %)
[29] = tested on: MDA-MB-468; experiment: NCI-60 anticancer screening (SRB); assay type: cell-based; conditions: Homo sapiens; MDA-MB-468, breast cancer; one dose 10 μM; read-out: Growth Inhibition Percentage (GI %)
[30] = tested on: EKVX; experiment: NCI-60 anticancer screening (SRB); assay type: cell-based; conditions: Homo sapiens, NSC lung cancer, one dose 10 μM, read-out: Growth Inhibition Percentage (GI %)
[31] = tested on: UO-31; experiment: NCI-60 anticancer screening (SRB); assay type: cell-based; conditions: Homo sapiens; UO-31, renal cancer; one dose 10 μM; read-out: Growth Inhibition Percentage (GI %)
[32] = tested on: 786-0; experiment: NCI-60 anticancer screening (SRB); assay type: cell-based; conditions: Homo sapiens; 786-0, renal cancer; one dose 10 μM; read-out: Growth Inhibition Percentage (GI %)
[33] = tested on: NCI/ADR-RES; experiment: NCI-60 anticancer screening (SRB); assay type: cell-based; conditions: Homo sapiens, ovarian cancer, one dose 10 μM, read-out: Growth Inhibition Percentage (GI %)

Row | SMILES | inhibition at 10 µM [1] | inhibition at 10 µM [2] | inhibition at 10 µM [3] | inhibition at 10 µM [4] | inhibition at 10 µM [5] | inhibition at 10 µM [6] | inhibition at 10 µM [7] | inhibition at 10 µM [8] | inhibition at 10 µM [9] | inhibition at 10 µM [10] | inhibition at 10 µM [11] | inhibition at 10 µM [12] | inhibition at 10 µM [13] | inhibition at 10 µM [14] | inhibition at 10 µM [15] | inhibition at 10 µM [16] | inhibition at 10 µM [17] | inhibition at 10 µM [18] | inhibition at 10 µM [19] | inhibition at 10 µM [20] | further results
1 | CCOC(=O)C1=C(N)N(c2ccc(C)cc2)C2=C(C(=O)CC(C)(C)C2)C1c1ccc([N+](=O)[O-])cc1 (racemic) [8j, (±)-Ethyl 2-amino-7,7-dimethyl-1–(4-methylphenyl)-4–(4-nitrophenyl)-5-oxo-1,4,5,6,7,8-hexahydroquinoline-3-carboxylate] | < 10% | < 10% | < 10% | < 10% | < 10% | < 10% | < 10% | < 10% | < 10% | < 10% | 13% | < 10% | < 10% | < 10% | < 10% | < 10% | < 10% | < 10% | < 10% | < 10% | inhibition at 10 µM [21]: < 10%; inhibition at 10 µM [22]: < 10%; melting point: 270 to 272 °C; inhibition at 10 µM [23]: < 10%; inhibition at 10 µM [24]: < 10%; inhibition at 10 µM [25]: < 10%; inhibition at 10 µM [26]: < 10%; inhibition at 10 µM [27]: < 10%; inhibition at 10 µM [28]: < 10%; inhibition at 10 µM [29]: < 10%; inhibition at 10 µM [30]: < 10%; inhibition at 10 µM [31]: < 10%; inhibition at 10 µM [32]: < 10%; inhibition at 10 µM [33]: < 10%
2 | CCOC(=O)C1=C(N)N(c2ccc(Cl)cc2)C2=C(C(=O)CC(C)(C)C2)C1c1ccc([N+](=O)[O-])cc1 (racemic) [8k, (±)-Ethyl2-amino-1–(4-chlorophenyl)-7,7-dimethyl-4–(4-nitrophenyl)-5-oxo-1,4,5,6,7,8-hexahydroquinoline-3-carboxylate] | < 10% | < 10% | 19% | < 10% | 11% | < 10% | 19% | < 10% | 15% | 27% | 29% | 26% | < 10% | 21% | < 10% | < 10% | < 10% | < 10% | < 10% | 22% | inhibition at 10 µM [21]: 12%; inhibition at 10 µM [22]: < 10%; melting point: 198 to 200 °C; inhibition at 10 µM [23]: < 10%; inhibition at 10 µM [24]: 27%; inhibition at 10 µM [25]: < 10%; inhibition at 10 µM [26]: < 10%; inhibition at 10 µM [27]: < 10%; inhibition at 10 µM [28]: < 10%; inhibition at 10 µM [29]: 18%; inhibition at 10 µM [30]: 15%; inhibition at 10 µM [31]: 32%; inhibition at 10 µM [32]: < 10%; inhibition at 10 µM [33]: 16%
3 | CCOC(=O)C1=C(N)N(c2ccccc2)C2=C(C(=O)CC(C)(C)C2)C1c1ccc(N2CCOCC2)cc1 (racemic) [8l, (±)-Ethyl 2-amino-7,7-dimethyl-4-[4-(morpholin-4-yl)phenyl]-5-oxo-1-phenyl-1,4,5,6,7,8-hexahydroquinoline-3-carboxylate] | 12% | < 10% | < 10% | < 10% | 18% | < 10% | < 10% | < 10% | < 10% | 11% | 17% | < 10% | < 10% | < 10% | < 10% | < 10% | < 10% | < 10% | < 10% | < 10% | inhibition at 10 µM [21]: < 10%; inhibition at 10 µM [22]: < 10%; melting point: 193 to 195 °C; inhibition at 10 µM [23]: < 10%; inhibition at 10 µM [24]: < 10%; inhibition at 10 µM [25]: < 10%; inhibition at 10 µM [26]: < 10%; inhibition at 10 µM [27]: < 10%; inhibition at 10 µM [28]: < 10%; inhibition at 10 µM [29]: < 10%; inhibition at 10 µM [30]: < 10%; inhibition at 10 µM [31]: < 10%; inhibition at 10 µM [32]: 16%; inhibition at 10 µM [33]: < 10%
4 | CCOC(=O)C1=C(N)N(c2ccc(Cl)cc2)C2=C(C(=O)CC(C)(C)C2)C1c1ccc(N2CCOCC2)cc1 (racemic) [8m, (±)-Ethyl 2-amino-1–(4-chlorophenyl)-7,7-dimethyl-4-[4-(morpholin-4-yl)phenyl]-5-oxo-1,4,5,6,7,8-hexahydroquinoline-3-carboxylate] | < 10% | < 10% | < 10% | < 10% | 13% | < 10% | < 10% | 11% | < 10% | 11% | 17% | < 10% | < 10% | < 10% | < 10% | < 10% | 12% | < 10% | < 10% | < 10% | inhibition at 10 µM [21]: < 10%; inhibition at 10 µM [22]: < 10%; melting point: 175 to 177 °C; inhibition at 10 µM [23]: < 10%; inhibition at 10 µM [24]: < 10%; inhibition at 10 µM [25]: < 10%; inhibition at 10 µM [26]: 76%; inhibition at 10 µM [27]: < 10%; inhibition at 10 µM [28]: < 10%; inhibition at 10 µM [29]: 16%; inhibition at 10 µM [30]: 25%; inhibition at 10 µM [31]: 15%; inhibition at 10 µM [32]: 11%; inhibition at 10 µM [33]: < 10%
